Source: patent publication US20090048216A1, “INTRAVENOUS AND ORAL DOSING OF A DIRECT-ACTING AND REVERSIBLE P2Y12 INHIBITOR” (Portola Pharmaceuticals, Inc., priority 2007, published 2009)
Entries after “also recorded” stand apart in the source; their conditions may differ.

Legend:
P2Y12 receptor = target: T1, P2Y12 receptor (Homo sapiens, UniProt Q9H244); assay: platelet ADP receptor binding assay (ARB): inhibition of [3H]2-MeS-ADP binding to platelets; conditions: whole platelets
T1 construct: endogenous in cells; host or cells: apyrase-washed human platelets (outdated from hospital blood banks, or fresh)
Experimental: 1. The Ability of Candidate Molecules to Inhibit the Binding of [3H]2-MeS-ADP to the P2Y12 Receptor on Platelets was Determined Using a Radioligand Binding Assay.
Utilizing this assay the potency of inhibition of such compounds with respect to [^3H]2-MeS-ADP binding to whole platelets is determined. Under the conditions described in II (3) below, the binding of [^3H]2-MeS-ADP is solely due to the interaction of this ligand with the P2Y12 receptor, in that all the specific binding measured in this assay is compatable with a P2Y12 antagonist (i.e., the specific binding is reduced to background levels by competition with an excess of P2Y12 antagonist, with no competition of binding when a P2Y1 antagonist is pre-incubated with the platelet preparation). […]
A platelet ADP receptor binding assay (ARB) using the tritiated potent agonist ligand [3H]2-MeS-ADP (Jantzen, H. M. et al. (1999) Thromb. Hemost. 81:111-117) has been adapted to the 96-well microtiter format. […] Total binding is determined in the absence of test compounds. […] The platelet-bound radioactivity on the filtermats is determined in a scintillation counter (Microbeta 1450, Wallac Inc., Gaithersburg, Md.). Specific binding is determined by subtraction of non-specific binding from total binding, and specific binding in the presence of test compounds is expressed as % of specific binding in the absence of test compound dilutions. […]

[1] = tested on: ADP-induced human platelet aggregation; assay: Inhibition of ADP-mediated platelet aggregation in vitro (PRP assay); type: cell-based; conditions: human platelet-rich plasma
Experimental: For preparation of human platelet-rich plasma for aggregation assays, human venous blood was collected from healthy, drug-free volunteers into 0.38% sodium citrate (0.013 M, pH 7.0 final). […] This preparation of PRP can subsequently be used for aggregation assays in either a 96-well plate or standard cuvette aggregometry.
For cuvette light transmittance aggregation assays, serial dilutions (1:3) of test compounds were prepared in 100% DMSO in a 96 well V-bottom plate (final DMSO concentration in the cuvette was 0.6%). […] The aggregation reaction is recorded for ˜5 min, and maximum extent of aggregation is determined by the difference in extent of aggregation at baseline, compared to the maximum aggregation that occurs during the five minute period of the assay. Inhibition of aggregation was calculated as the maximum aggregation observed in the presence of inhibitor, compared to that in the absence of inhibitor. […]
Inhibition of ADP-dependent aggregation was also determined in 96-well flat-bottom microtiter plates using a microtiter plate shaker and plate reader similar to the procedure described by Frantantoni et al., Am. […] The OD of the samples is then determined at 450 nm using a microtiter plate reader (Softmax, Molecular Devices, Menlo Park, Calif.) resulting in the 0 minute reading. […]

[2] = Accelerated stability of solid forms
[3] = one week, 40° C., 75% RH
[4] = Pharmacokinetics of single IV doses in human subjects; type: in vivo; conditions: IV 1-40 mg
[5] = Tolerability and safety of single oral doses in human subjects; conditions: oral doses 10-800 mg
Experimental: A single center, double-blind, placebo-controlled study of a compound of Formula I was conducted in human subjects. The compound of Formula I was the potassium salt (Polymorph B) dissolved in water.

[6] = tested on: ADP-induced platelet aggregation; assay: animal or person; conditions: Homo sapiens, iv, 0.1 h, read-out: IC50 for inhibition of ADP-induced late (6 min) platelet aggregation vs plasma concentration (Emax model)
Experimental: (§1) Human venous blood was collected in a plastic syringe and immediately transferred to a plastic tube containing a fixed amount of anticoagulant (e.g., 5 μM (final) of a proprietary Portola anticoagulant C921-78 (a factor Xa inhibitor (see, Betz A, Wong P W, Sinha U. Inhibition of factor Xa by a peptidyl-alpha-ketothiazole involves 2 steps: evidence for a stabilizing conformational change. Biochemistry. 1999; 38: 14582-14591)) and mixed gently by inversion. Platelet-rich plasma (PRP) was prepared by centrifugation of whole blood at 160×g for 20 minutes at room temperature. The PRP layer was removed, transferred to a new tube, and the platelet count was adjusted, if necessary, to achieve a platelet concentration of ˜3×10^8 platelets/ml using platelet-poor plasma (PPP). PPP is prepared by centrifugation of the remaining blood sample (after removal of PRP) for 20 minutes at 800×g. This preparation of PRP was used for standard light transmittance aggregometry assays. […] While stirring the PRP, a sufficient volume of adenosine diphosphate (ADP, Sigma-Aldrich) was added to achieve a final concentration of 10 μM in the cuvette, and the change in light transmittance was recorded for 6 minutes. The maximum extent of aggregation as well as the final (6 min after initiation of the aggregation reaction) extent of aggregation was determined from each reaction.

[7] = Pharmacokinetics of single oral liquid doses in human subjects; type: in vivo
[8] = Bleeding time (Surgicutt device) after IV infusion; type: in vivo, human
Experimental: Bleeding time was measured using the Surgicutt device at 25 min (Cmax) and 8 hrs post dose. […] However, this effect was reversed by 8 hrs post dosing.

[9] = tested on: ADP induced platelet aggregation
Experimental: (§2) Human venous blood was collected in a plastic syringe and immediately transferred to a plastic tube containing a fixed amount of anticoagulant (e.g., 5 μM (final) of a proprietary Portola anticoagulant C921-78 (a factor Xa inhibitor (see, Betz A, Wong P W, Sinha U. Inhibition of factor Xa by a peptidyl-alpha-ketothiazole involves 2 steps: evidence for a stabilizing conformational change. Biochemistry. 1999; 38: 14582-14591)) and mixed gently by inversion. Platelet-rich plasma (PRP) was prepared by centrifugation of whole blood at 160×g for 20 minutes at room temperature. The PRP layer was removed, transferred to a new tube, and the platelet count was adjusted, if necessary, to achieve a platelet concentration of ˜3×10^8 platelets/ml using platelet-poor plasma (PPP). PPP is prepared by centrifugation of the remaining blood sample (after removal of PRP) for 20 minutes at 800×g. This preparation of PRP was used for standard light transmittance aggregometry assays. A fixed volume of PRP (0.3-0.5 mls) was transferred to an aggregometry cuvette, and the same volume of PPP was used to blank the machine. While stirring the PRP, a sufficient volume of adenosine diphosphate (ADP, Sigma-Aldrich) was added to achieve a final concentration of 10 μM in the cuvette, and the change in light transmittance was recorded for 6 minutes. The maximum extent of aggregation as well as the final (6 min after initiation of the aggregation reaction) extent of aggregation was determined from each reaction.
(§3) The compound of Formula I was the potassium salt (Polymorph B) dissolved in water.

[10] = tested on: ADP-induced platelet aggregation; conditions: IV, at the higher dosages
Experimental: as §1

[11] = tested on: collagen-induced platelet thrombosis; assay: Real Time Thrombosis Profiler (RTTP) ex vivo after oral dosing; type: in vivo, human; conditions: 6 hours post dosing
Experimental: Rhodamine 6G (1.25 μg/ml final concentration) was added to the blood, mixed by gentle inversion, and the tube was incubated at ˜37° C. for 20 min. Subsequently, the rhodamine-labeled blood was perfused through a rectangular glass capillary coated with type III collagen at an arterial shear rate (˜1600 sec^−1) and the extent of thrombus formation on the collagen surface was monitored for 5-7 min by the accumulation of fluorescently-labeled platelets using a video camera. The extent of the overall thrombotic process (e.g., accumulation of fluorescently-labeled platelets over time) was determined by analysis of various parameters derived from the curve generated from mean fluorescence intensity vs time (sec). These parameters may include slope, area under the curve, and endpoint.
In yet another part of the study, the effects of the oral treatments in the human subjects was investigated using a Real Time Thrombosis Profiler (RTTP) as the ex vivo assay method. The set up and principles of operation of the RTTP are depicted in FIGS. 26A, B, and C. There was a dose-dependent decrease in the RTTP collagen-induced platelet thrombosis for the subjects given the compound. A dose of 100 mg of the compound produced about a 70% inhibition. A dose of 30 mg of the compound produced a 53 percent inhibition.

[12] = Tolerability and safety of single intravenous doses in human subjects; type: in vivo
Source text: To determine the tolerability, the pharmacokinetic (PK) and pharmacodynamic (PD) effects of single ascending IV doses of a compound of Formula I (the potassium salt of polymorph B, or PRT128) in healthy subjects, ages 18-50.

[13] = tested on: ADP induced platelet aggregation; assay: animal or person; conditions: Homo sapiens, po, 0.1 h, read-out: IC50 of inhibition of ADP-induced platelet aggregation vs plasma concentration (PK-PD), oral study, aggregation at 6 minutes, ex vivo
Experimental: as §2, §3

[14] = tested on: collagen induced platelet aggregation; assay: Ex vivo collagen-induced platelet aggregation after oral dosing, with or without aspirin; type: in vivo, human; conditions: aspirin alone, predosed for three days at 325 mg/day
Source text: In a further aspect of the study, the effect of aspirin and the compound together on the inhibition of collagen-induced platelet aggregation was investigated.

T1 sequence (Q9H244 whole entry): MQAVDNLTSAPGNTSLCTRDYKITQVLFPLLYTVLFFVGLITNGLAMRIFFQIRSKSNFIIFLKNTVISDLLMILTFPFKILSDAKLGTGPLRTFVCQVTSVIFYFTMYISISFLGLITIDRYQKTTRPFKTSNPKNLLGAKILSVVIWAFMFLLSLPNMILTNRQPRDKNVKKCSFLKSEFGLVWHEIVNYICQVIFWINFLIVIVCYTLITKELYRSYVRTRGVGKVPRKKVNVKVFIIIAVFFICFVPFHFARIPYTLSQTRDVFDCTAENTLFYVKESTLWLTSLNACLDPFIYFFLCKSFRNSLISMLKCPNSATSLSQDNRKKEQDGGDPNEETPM

Compound: CNc1cc2[nH]c(=O)n(-c3ccc(NC(=O)NS(=O)(=O)c4ccc(Cl)s4)cc3)c(=O)c2cc1F [Example 2]
- IC50 (P2Y12 receptor): < 0.05 µM
- IC50 [1]: < 10 µM

Compound: CNc1cc2[nH]c(=O)n(-c3ccc(NC(=O)[N-]S(=O)(=O)c4ccc(Cl)s4)cc3)c(=O)c2cc1F.[K+] [Form A]
- stability of solid form [2]: stable
- change in chemical purity in accelerated stability test [3]: No change

Compound: CNc1cc2[nH]c(=O)n(-c3ccc(NC(=O)[N-]S(=O)(=O)c4ccc(Cl)s4)cc3)c(=O)c2cc1F.[K+] [PRT128]
- drug exposure with dose [4]: dose proportional
- serious adverse events [5]: no serious adverse events
- tolerability [5]: well tolerated
- IC50 [6]: 0.601 µg/mL
- plasma PK increases with dose ([7]; oral, 10-100 mg): dose proportional
- half-life ([7]; plasma, single oral liquid dose, read-out: terminal half-life (converted)): ~12 h
- dose at which pre-defined bleeding time stopping criteria (>20 min and 3 fold prolongation from baseline) were reached [8]: 40 mg
- bleeding time ([8]; 25 min (Cmax)): prolonged dose-dependently
- bleeding time effect at 8 hrs ([8]; 8 hrs post dose, potassium salt): reversed; also recorded: returned to baseline
- bleeding time at potential clinically therapeutic anti-thrombotic level of 40% ([8]; listed as studied compound, potassium salt): without substantially affecting bleeding time
- bleeding time at potential clinically therapeutic anti-thrombotic level of 40% ([8]; potassium salt): did not increase bleeding time
- inhibition of ADP-induced platelet aggregation ([9]; oral 100 mg, four hours post dose): 60%
- IC50 of inhibition of ADP-induced platelet aggregation vs plasma concentration (PK-PD) ([9]; oral study, aggregation at 6 minutes, ex vivo, listed as potassium salt, potassium salt): ≈ 450 ng/ml
- maximum inhibition of ADP-induced platelet aggregation measured at six minutes ([9]; oral, at the higher dosages): 100%
- dose achieving maximum effect (maximum amplitude aggregation) ([9]; oral, four hour time point): about 200 mg
- maximum inhibition of ADP-induced platelet aggregation measured at six minutes [10]: 100%
- inhibition of RTTP collagen-induced platelet thrombosis ([11]; oral 30 mg): 53%
- inhibition of RTTP collagen-induced platelet thrombosis ([11]; oral 100 mg): ~70%
- ECG ([12]; IV 1-40 mg): No significant changes
- serious adverse events ([12]; IV 1-40 mg): No serious adverse events
- standard clinical chemistry, hematology and coagulation labs ([12]; IV 1-40 mg): no clinically significant changes or trends
- vital signs ([12]; IV 1-40 mg): No significant changes or trends
- tolerability ([12]; IV 1-40 mg over 20 minutes, human): well tolerated
- tolerability ([12]; IV bolus up to 45 mg): equally well tolerated
- IC50 [13]: ~0.451 µg/mL

Compound: CNc1cc2[nH]c(=O)n(-c3ccc(NC(=O)[N-]S(=O)(=O)c4ccc(Cl)s4)cc3)c(=O)c2cc1F.[Na+] [amorphous form of the sodium salt]
- change in chemical purity in accelerated stability test [3]: No change

Compound: ortho-acetylsalicylic acid [aspirin]
- reduction in collagen induced platelet aggregation assay [14]: ~40%
